The values that follow are results of earlier work, collected in patent publication US20070275060A1, “Extended release solid pharmaceutical composition containing carbidopa and levodopa” (OSMOTICA COSTA RICA SOCIEDAD ANONIMA, priority 2005, published 2007).

For the data set the following is noted: orally administered.

Each structure is given as a SMILES string.

Consider `N[C@@H](Cc1ccc(O)c(O)c1)C(=O)O` [LD], for which the “time of peak concentrations” value was 30 to 120 min.
